{
  "source": "paper PMC11243320",
  "about": "“Tailoring Fibroblast-Activation Protein Targeting for Theranostics: A Comparative Preclinical Evaluation of the ^68Ga- and ^177Lu-Labeled Monomeric and Dimeric Fibroblast-Activation Protein Inhibitors DOTA.SA.FAPi and DOTAGA.(SA.FAPi)2” (Molecules, 2024)",
  "test_system": "U87MG tumor-bearing mice",
  "assay": "Ex vivo biodistribution of 68Ga-labeled radiotracers in U87MG xenografts",
  "protocol": "U87MG and PC3 tumor-bearing mice: Female athymic BALB/c (6 weeks/16–20 g) and male athymic BALB/c nude mice (6 weeks/20–25 g) were implanted with U87MG or PC3 cells (5 × 10^6/100 µL PBS) into their right shoulder, respectively. The animals were used for biodistribution and PET/SPECT/CT imaging studies (Animal License No: BE98/2021).\nTen pmol (0.08–0.1 MBq) of the radiotracers in 100 µL of NaCl 0.9% were injected intravenously into the tail vein of U87MG and PC3 tumor-bearing mice and biodistribution studies were conducted at 1, 2, and 3 h after injection.\nSaturation Binding Studies […]\nThe radioactivity of the culture medium, the receptor bound , the internalized and the externalized fractions were measured in a γ -counter. The externalized fraction of radioactivity was ex-pressed as the percentage of the total internalized amount.\n[68Ga]Ga -DOTA.SA.FAPi and [ 68Ga]Ga -DOTAGA.(SA.FAPi) 2\nTen pmol ( 0.08 –0.1 MBq) of [68Ga]Ga -monomer and [ 68Ga]Ga -dimer in 100 µ L of NaCl 0.9% were injected intravenously into the tail vein of U87MG or PC3 tumor bearing mice . The PC3 tumor-bearing mice were used between the 15th and 17th day after the xenograft implantation and the size was 281 ± 75 mm3. The U87MG tumor-bearing mice were used between the 7th and 9th day after the implantation and the size was 210 ± 34 mm3. Animals were terminally anesthetized by intraperitoneal injection of an overdose of pento-barbital natrium (150 mg/kg; Streuli Pharma SA, Uznach, Switzerland) at 1, 2 and 3 h after injection of the radiotracers. The organs of interest were dissected and weighed, and the radioactivity in the tissue samples […]\nwas counted in a γ-counter. Biodistribution data are given as the percent of injected activity per gram of tissue (% IA/g) and as means ± SD (n = 4). […]\neach radiotracer along with 20 nmol of UAMC1110 (total injected volume: 100 µL) and biodistribution stud-ies were performed 2 h after injection.\n[177Lu]Lu-DOTA.SA.FAPi and [177Lu]Lu-DOTAGA.(SA.FAPi)2\nTen pmol (0.06-0.08 MBq) of [177Lu]Lu-monomer and [177Lu]Lu-dimer in 100 µL of NaCl 0.9% were injected intravenously into the tail vein of PC3 tumor-bearing mice. The PC3 tumor-bearing mice were used between the 15th and 17th day after the xenograft implantation and its size was 281 ± 75 mm3. Animals were terminally anesthetized by intraperitoneal injection of an overdose of pentobarbital natrium (150 mg/kg; Streuli Pharma SA, Uznach, Switzerland) 1, 4, 24 and 48 h after the injection of [177Lu]Lu-DOTA.SA.FAPi and at 4, 24, 48, 72 and 96 h after the injection of [177Lu]Lu-DOTAGA.(SA.FAPi)2. The organs of interest were dissected and weighed, and the radioactivity in the tissue samples was counted in a γ-counter. The biodistribution data are given as the percent of injected activity per gram of tissue (% IA/g) and as means ± SD (n = 4). […]\nblood pools or if they were necrotic. Both tumor types were “clean” without extended vascularization; there […]\nSmall Animal Imaging Studies\nPET images were obtained after injection of 200 pmol of [68Ga]Ga-DOTA.SA.FAPi and [68Ga]Ga-DOT-AGA.(SA.FAPi)2 (1.0–1.6 MBq/100 μL) into U87MG or PC3 xenografts at 1, 2 and 3 h after injection. Static imaging was acquired for a time period between 10 and 45 min at 1, 2 and 3 h post injection, respectively.\nTo visualize the extent of FAP-specific tumor uptake, PET/CT blocking studies were performed as described above, and static scans were obtained for 30 min 2 h after the injection of the radiotracer along with the blocking agent (20 nmol).\nPET images were corrected for gallium-68 decay and reconstructed with 12 iterations of the maximum a posteriori (MAP) algorithm using a voxel size of 0.25 mm. No correction was applied for attenuation. In addition, a point spread function iterative deconvolution was applied. The images were normalized, filtered using a Gaussian 3D algorithm with a 1.3 mm isotropic kernel and generated using PMOD software. The CT was carried out using step and shoot mode and employed 45 kVp and 400 uA as settings. The images […]",
  "key": {"[1]": {"details": "2 h blocking (20 nmol UAMC1110)"}},
  "data": [
    {"smiles": "N#C[C@@H]1CC(F)(F)CN1C(=O)CNC(=O)c1ccnc2ccc(OCCCCNc3c(NCCNC(=O)CN4CCN(CC(=O)[O-])CCN(CC(=O)[O-])CCN(CC(=O)[O-])CC4)c(=O)c3=O)cc12.[68Ga+3]", "note": "[[^68Ga]Ga-DOTA.SA.FAPi]", "values": [
      {"measurement": "Biodistribution Blood", "setting": "1 h", "value": "13.4 ± 0.2", "unit": "% IA/g"},
      {"measurement": "Biodistribution Bone", "setting": "1 h", "value": "2.1 ± 0.2", "unit": "% IA/g"},
      {"measurement": "Biodistribution Heart", "setting": "1 h", "value": "4.9 ± 0.6", "unit": "% IA/g"},
      {"measurement": "Biodistribution Intestine", "setting": "1 h", "value": "2.9 ± 0.5", "unit": "% IA/g"},
      {"measurement": "Biodistribution Kidney", "setting": "1 h", "value": "3.5 ± 0.7", "unit": "% IA/g"},
      {"measurement": "Biodistribution Liver", "setting": "1 h", "value": "3.2 ± 0.4", "unit": "% IA/g"},
      {"measurement": "Biodistribution Lung", "setting": "1 h", "value": "3.2 ± 1.7", "unit": "% IA/g"},
      {"measurement": "Biodistribution Muscle", "setting": "1 h", "value": "2.6 ± 1.4", "unit": "% IA/g"},
      {"measurement": "Biodistribution Pancreas", "setting": "1 h", "value": "9.7 ± 2.7", "unit": "% IA/g"},
      {"measurement": "Biodistribution Spleen", "setting": "1 h", "value": "2.3 ± 0.4", "unit": "% IA/g"},
      {"measurement": "Biodistribution Stomach", "setting": "1 h", "value": "2.1 ± 0.6", "unit": "% IA/g"},
      {"measurement": "Biodistribution U87MG-Tumor", "setting": "1 h", "value": "6.5 ± 0.7", "unit": "% IA/g"},
      {"measurement": "Tumor/Blood ratio", "setting": "1 h", "value": "0.5 ± 0.03"},
      {"measurement": "Tumor/Liver ratio", "setting": "1 h", "value": "2.0 ± 0.3"},
      {"measurement": "Tumor/Muscle ratio", "setting": "1 h", "value": "2.3 ± 0.7"},
      {"measurement": "Tumor/Pancreas ratio", "setting": "1 h", "value": "0.7 ± 0.2"},
      {"measurement": "Biodistribution Blood", "setting": "2 h", "value": "8.5 ± 1.5", "unit": "% IA/g"},
      {"measurement": "Biodistribution Bone", "setting": "2 h", "value": "1.3 ± 0.2", "unit": "% IA/g"},
      {"measurement": "Biodistribution Heart", "setting": "2 h", "value": "3.1 ± 0.9", "unit": "% IA/g"},
      {"measurement": "Biodistribution Intestine", "setting": "2 h", "value": "3.2 ± 0.7", "unit": "% IA/g"},
      {"measurement": "Biodistribution Kidney", "setting": "2 h", "value": "2.7 ± 0.6", "unit": "% IA/g"},
      {"measurement": "Biodistribution Liver", "setting": "2 h", "value": "3.1 ± 0.9", "unit": "% IA/g"},
      {"measurement": "Biodistribution Lung", "setting": "2 h", "value": "2.2 ± 1.0", "unit": "% IA/g"},
      {"measurement": "Biodistribution Muscle", "setting": "2 h", "value": "2.8 ± 1.1", "unit": "% IA/g"},
      {"measurement": "Biodistribution Pancreas", "setting": "2 h", "value": "10.5 ± 2.8", "unit": "% IA/g"},
      {"measurement": "Biodistribution Spleen", "setting": "2 h", "value": "1.6 ± 0.5", "unit": "% IA/g"},
      {"measurement": "Biodistribution Stomach", "setting": "2 h", "value": "2.0 ± 0.5", "unit": "% IA/g"},
      {"measurement": "Biodistribution U87MG-Tumor", "setting": "2 h", "value": "5.2 ± 1.4", "unit": "% IA/g"},
      {"measurement": "Tumor/Blood ratio", "setting": "2 h", "value": "0.7 ± 0.3"},
      {"measurement": "Tumor/Liver ratio", "setting": "2 h", "value": "1.7 ± 0.5"},
      {"measurement": "Tumor/Muscle ratio", "setting": "2 h", "value": "1.9 ± 1.5"},
      {"measurement": "Tumor/Pancreas ratio", "setting": "2 h", "value": "0.5 ± 0.2"},
      {"measurement": "Biodistribution Blood", "setting": "[1]", "value": "0.5 ± 0.1", "unit": "% IA/g"},
      {"measurement": "Biodistribution Bone", "setting": "[1]", "value": "1.7 ± 0.6", "unit": "% IA/g"},
      {"measurement": "Biodistribution Heart", "setting": "[1]", "value": "0.7 ± 0.3", "unit": "% IA/g"},
      {"measurement": "Biodistribution Intestine", "setting": "[1]", "value": "1.3 ± 0.1", "unit": "% IA/g"},
      {"measurement": "Biodistribution Kidney", "setting": "[1]", "value": "2.5 ± 0.8", "unit": "% IA/g"},
      {"measurement": "Biodistribution Liver", "setting": "[1]", "value": "0.3 ± 0.03", "unit": "% IA/g"},
      {"measurement": "Biodistribution Lung", "setting": "[1]", "value": "1.1 ± 0.2", "unit": "% IA/g"},
      {"measurement": "Biodistribution Muscle", "setting": "[1]", "value": "1.4 ± 0.8", "unit": "% IA/g"},
      {"measurement": "Biodistribution Pancreas", "setting": "[1]", "value": "0.6 ± 0.4", "unit": "% IA/g"},
      {"measurement": "Biodistribution Spleen", "setting": "[1]", "value": "0.7 ± 0.3", "unit": "% IA/g"},
      {"measurement": "Biodistribution Stomach", "setting": "[1]", "value": "0.7 ± 0.4", "unit": "% IA/g"},
      {"measurement": "Biodistribution U87MG-Tumor", "setting": "[1]", "value": "1.1 ± 0.8", "unit": "% IA/g"},
      {"measurement": "Biodistribution Blood", "setting": "3 h", "value": "6.2 ± 0.5", "unit": "% IA/g"},
      {"measurement": "Biodistribution Bone", "setting": "3 h", "value": "3.0 ± 1.6", "unit": "% IA/g"},
      {"measurement": "Biodistribution Heart", "setting": "3 h", "value": "3.7 ± 0.7", "unit": "% IA/g"},
      {"measurement": "Biodistribution Intestine", "setting": "3 h", "value": "3.5 ± 0.7", "unit": "% IA/g"},
      {"measurement": "Biodistribution Kidney", "setting": "3 h", "value": "3.4 ± 0.3", "unit": "% IA/g"},
      {"measurement": "Biodistribution Liver", "setting": "3 h", "value": "3.9 ± 0.3", "unit": "% IA/g"},
      {"measurement": "Biodistribution Lung", "setting": "3 h", "value": "3.1 ± 1.0", "unit": "% IA/g"},
      {"measurement": "Biodistribution Muscle", "setting": "3 h", "value": "3.1 ± 0.9", "unit": "% IA/g"},
      {"measurement": "Biodistribution Pancreas", "setting": "3 h", "value": "8.7 ± 1.3", "unit": "% IA/g"},
      {"measurement": "Biodistribution Spleen", "setting": "3 h", "value": "2.8 ± 1.0", "unit": "% IA/g"},
      {"measurement": "Biodistribution Stomach", "setting": "3 h", "value": "2.2 ± 0.5", "unit": "% IA/g"},
      {"measurement": "Biodistribution U87MG-Tumor", "setting": "3 h", "value": "4.9 ± 1.0", "unit": "% IA/g"},
      {"measurement": "Tumor/Blood ratio", "setting": "3 h", "value": "0.8 ± 0.3"},
      {"measurement": "Tumor/Liver ratio", "setting": "3 h", "value": "1.3 ± 0.5"},
      {"measurement": "Tumor/Muscle ratio", "setting": "3 h", "value": "1.7 ± 1.2"},
      {"measurement": "Tumor/Pancreas ratio", "setting": "3 h", "value": "0.6 ± 0.3"}
    ]}
  ]
}
